US7868013B2, “Cycloalkyl substituted pyrimidinediamine compounds and their uses” (Rigel Pharmaceuticals, Inc., priority 2004, dated 2011)
Counter-ions that a name gives are not always drawn. Like-named read-outs stand apart in the source and are kept apart here.

Tests used:
[1] = test system: H1299 (non-small cell lung carcinoma); experiment: In vitro antiproliferation assay, H1299 cells (TABLE 1 6 point assay; TABLE 2); assay type: cell-based; conditions: H1299 cells, read-out: IC50, H1299 cells
Protocol: (§1) Certain compounds were tested against other cell types for their ability to inhibit proliferation in standard antiproliferation assays.

A549 (lung carcinoma) = experiment: In vitro antiproliferation assay, A549 cells (TABLE 1 6 point assay; TABLE 2); assay type: cell-based; conditions: A549 cells, read-out: IC50, A549 cells
Protocol: as §1

[2] = Homo sapiens, NCI-H1299, 6 point assay
[3] = Homo sapiens, A549, 6 point assay
[4] = 6 point assay, Bis Hydrochloride Salt

Row | SMILES | IC50 [1, 2] [µM] | IC50 (A549 (lung carcinoma); [3]) [µM] | other results
1 | Cc1cc(Nc2ncc(F)c(NC3(C(N)=O)CC=CC3)n2)ccc1N1CCN(C)CC1 [compound 238, N4-(1-Aminocarbonylcyclopent-3-ene-1-yl)-5-fluoro-N2-[3-methyl-4-(4-methylpiperazin-1-yl)phenyl]-2,4-pyrimidinediamine] | > 10 | 1 to 10 | –
2 | Cc1cc(Nc2ncc(F)c(NC3(C(=O)NC4CC4)CC=CC3)n2)ccc1N1CCN(C)CC1 [compound 244, N4-(1-Cyclopropylaminocarbonylcyclopent-3-en-1-yl)-5-fluoro-N2-[3-methyl-4-(4-methylpiperazin-1-yl)phenyl]-2,4-pyrimidinediamine] | > 10 | > 10 | –
3 | Cc1cc(Nc2ncc(F)c(NC3(C(=O)O)CCCC3)n2)ccc1N1CCN(C)CC1 [compound 246, N4-(1-Carboxycyclopent-1-yl)-5-fluoro-N2-[3-methyl-4-(4-methylpiperazin-1-yl)phenyl]-2,4-pyrimidinediamine] | > 10 | > 10 | –
4 | Cc1cc(Nc2ncc(F)c(NC3(C(=O)NC4CC4)CCCC3)n2)ccc1N1CCN(C)CC1 [compound 247, N4-(1-Cyclopropylaminocarbonylcyclopent-1-yl)-5-fluoro-N2-[3-methyl-4-(4-methylpiperazin-1-yl)phenyl]-2,4-pyrimidinediamine] | > 10 | > 10 | –
5 | Cc1cc(Nc2ncc(F)c(NC3(C(N)=O)CCCC3)n2)ccc1N1CCN(C)CC1 [compound 248, N4-(1-Aminocarbonylcyclopent-1-yl)-5-fluoro-N2-[3-methyl-4-(4-methylpiperazin-1-yl)phenyl]-2,4-pyrimidinediamine] | > 10 | > 10 | –
6 | Cc1cc(Nc2ncc(F)c(N[C@@H]3[C@H]4CC[C@H](C4)[C@@H]3C(=O)NC3CC3)n2)ccc1N1CCN(C)CC1 [compound 253, (1S,2R,3S,4R)-N4-(3-N-Cyclopropylaminocarbonylbicyclo[2.2.1]hept-2-yl)-5-fluoro-N2-[3-methyl-4-(4-methylpiperazin-1-yl)phenyl]-2,4-pyrimidinediamine] | 0.1 to 1 | 0.1 to 1 | –
7 | Cc1cc(Nc2ncc(F)c(NC3C4CC5CC(C4)CC3C5)n2)ccc1N1CCN(C)CC1 (stereo not shown) [compound 258, N4-(2-Adamantyl)-5-fluoro-N2-[3-methyl-4-(4-methylpiperazin-1-yl)phenyl]-2,4-pyrimidinediamine] | 1 to 10 | 1 to 10 | –
8 | Cc1cc(Nc2ncc(F)c(NC34CC5CC(CC3C5)C4)n2)ccc1N1CCN(C)CC1 [compound 259, 5-Fluoro-N2-[3-methyl-4-(4-methylpiperazin-1-yl)phenyl]-N4-(3-noradamantyl)-2,4-pyrimidinediamine] | 1 to 10 | 1 to 10 | –
9 | CCS(=O)(=O)N1CCN(c2ccc(Nc3ncc(F)c(N[C@H]4[C@@H](C(N)=O)[C@@H]5C=C[C@H]4C5)n3)cc2C)CC1 [compound 269, (1R,2R,3S,4S)-N4-(3-Aminocarbonylbicyclo[2.2.1]hept-5-en-2-yl)-N2-[3-methyl-4-(4-ethylsulfonylpiperazin-1-yl)phenyl]-5-fluoro-2,4-pyrimidinediamine] | – | – | IC50 ([1]; 6 point assay): ≤ 0.1 µM; IC50 (A549 (lung carcinoma); 6 point assay): ≤ 0.1 µM
10 | CCS(=O)(=O)N1CCN(c2ccc(Nc3ncc(F)c(N[C@H]4[C@@H](C(N)=O)[C@@H]5C=C[C@H]4C5)n3)cc2C)CC1 [compound 270, (1R,2R,3S,4S)-N4-(3-aminocarbonylbicyclo[2.2.1]hept-5-ene-2-yl)-N2-[3-methyl-4-(4-ethylsulfonylpiperazin-1-yl)phenyl]-5-fluoro-2,4-pyrimidinediamine Bis Hydrochloride Salt] | – | – | IC50 [1, 4]: 1 to 10 µM; IC50 (A549 (lung carcinoma); [4]): 1 to 10 µM
11 | Cc1cc(Nc2ncc(F)c(N[C@H]3[C@@H](C(N)=O)[C@@H]4C=C[C@H]3C4)n2)ccc1NC1CCN(C)CC1 [compound 272, (1R,2R,3S,4S)-N4-(3-Aminocarbonylbicyclo[2.2.1]hept-5-en-2-yl)-5-fluoro-N2-(3-methyl-4-(1-methylpiperidin-4-ylamino)phenyl]-2,4-pyrimidinediamine] | ≤ 0.1 | ≤ 0.1 | –
